pIC50: −log10 of the molar value.
Legend:
[1] = test system: primary cultured cells of mouse fetus-derived dorsal root ganglia (DRGs); test: Suppression of axonal degeneration after axotomy in DRG explant culture; format: cell-based; details: minimum concentration at which axonal degeneration was suppressed (DI 0.3 or less), 24 hours after axotomy; for minimal effective concentration: Mus musculus, read-out: Evaluation on protection against degeneration
Procedure, shortened: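 Embryonic ICR mouse DRG explants were cultured 7–8 days in nicotinamide-free neuronal medium with NGF, then axotomized by removing the cell bodies. Compound (100 pM–10 µM final, 0.1% DMSO) was added within 30 min, and neurites were imaged 24 h later. The result is the lowest concentration giving degeneration index ≤0.3.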

[2] = biological target: T1, nicotinamide phosphoribosyl transferase (NAMPT) (Homo sapiens, UniProt P43490); test: NAMPT activity measurement (NMN fluorescence detection); format: biochemical; details: NAMPT recombinant protein, 10 µM Nam; for pIC50: read-out: Evaluation on NAMPT inhibitory
T1 construct: purchased Medical & Biological Laboratories Co., Ltd. (MBL)
T1 sequence (P43490 whole entry, species assumed): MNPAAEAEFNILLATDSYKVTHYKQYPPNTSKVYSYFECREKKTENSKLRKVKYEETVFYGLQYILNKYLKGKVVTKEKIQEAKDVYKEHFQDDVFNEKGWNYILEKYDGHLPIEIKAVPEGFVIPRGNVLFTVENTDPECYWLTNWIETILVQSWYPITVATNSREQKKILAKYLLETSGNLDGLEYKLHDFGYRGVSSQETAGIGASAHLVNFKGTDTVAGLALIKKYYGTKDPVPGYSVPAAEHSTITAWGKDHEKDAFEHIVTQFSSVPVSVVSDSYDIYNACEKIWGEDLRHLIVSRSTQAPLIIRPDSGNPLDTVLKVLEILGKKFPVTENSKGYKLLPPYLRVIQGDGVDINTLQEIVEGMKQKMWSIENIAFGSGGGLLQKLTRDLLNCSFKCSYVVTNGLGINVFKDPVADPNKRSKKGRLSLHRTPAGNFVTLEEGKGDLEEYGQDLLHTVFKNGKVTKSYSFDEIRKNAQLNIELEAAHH
Experimental: The compound of the present invention was evaluated for the ability to influence the activity of nicotinamide phosphoribosyl transferase (NAMPT) which is an enzyme that metabolizes nicotinamide (Nam), not the target SARM1.
The enzymatic reaction of NAMPT was carried out by adding NAMPT recombinant protein (manufactured by Medical & Biological Laboratories Co., Ltd. (MBL)) to a reaction solution containing the substrate Nam, phosphoribosylpyrophosphate (PRPP), ATP, and the like (composition: […] (pH = 7.4), 2 µM ATP, 0.5 µM PRPP, 0.02% BSA, 2 µM DTT, 1.2 µM MgCl2, and 10 µM Nam). The amount of the reaction product NMN was detected by detecting the fluorescent signal of a fluorescent substance obtained through the reaction of 2-acetylbenzofuran with NMN using SpectraMax M2 (Molecular Devices) (excitation: 421 nm, fluorescence: 480 nm) (Moriya et al, Chemical Communications 2013, 49 11500). The test compound was added at final concentrations of 10 µM, 3 µM, 1 µM, 300 nM, 100 nM, 30 nM, 10 nM, and 3 nM to the NMN synthesis reaction system described above. The NMN-derived fluorescent signal was normalized against a control group and plotted as the function of the test compound concentrations, and the compound was evaluated for its NAMPT inhibitory effect by calculating IC50.
The IC50 value was evaluated as ∘ for ≥1 µM and as Δ for ≥0.1 µM.

hSARM1 = biological target: T2, hSARM1 (Homo sapiens, UniProt Q6SZW1); test: Human SARM1 activity measurement in HEK293 cells transiently transfected with ΔN-hSARM1 (PC6 fluorescent probe); format: cell-based; set-up: expressed in transfected cells; host or cells: HEK293, pcDNA3 expression vector; details: inhibition rate; compound 30 µM; PC6 50 µM; HEK293 cells expressing ΔN-hSARM1; approximately 48 hours from transfection; read-out: Evaluation on hSARM1 inhibitory
T2 sequence (Q6SZW1 28-724): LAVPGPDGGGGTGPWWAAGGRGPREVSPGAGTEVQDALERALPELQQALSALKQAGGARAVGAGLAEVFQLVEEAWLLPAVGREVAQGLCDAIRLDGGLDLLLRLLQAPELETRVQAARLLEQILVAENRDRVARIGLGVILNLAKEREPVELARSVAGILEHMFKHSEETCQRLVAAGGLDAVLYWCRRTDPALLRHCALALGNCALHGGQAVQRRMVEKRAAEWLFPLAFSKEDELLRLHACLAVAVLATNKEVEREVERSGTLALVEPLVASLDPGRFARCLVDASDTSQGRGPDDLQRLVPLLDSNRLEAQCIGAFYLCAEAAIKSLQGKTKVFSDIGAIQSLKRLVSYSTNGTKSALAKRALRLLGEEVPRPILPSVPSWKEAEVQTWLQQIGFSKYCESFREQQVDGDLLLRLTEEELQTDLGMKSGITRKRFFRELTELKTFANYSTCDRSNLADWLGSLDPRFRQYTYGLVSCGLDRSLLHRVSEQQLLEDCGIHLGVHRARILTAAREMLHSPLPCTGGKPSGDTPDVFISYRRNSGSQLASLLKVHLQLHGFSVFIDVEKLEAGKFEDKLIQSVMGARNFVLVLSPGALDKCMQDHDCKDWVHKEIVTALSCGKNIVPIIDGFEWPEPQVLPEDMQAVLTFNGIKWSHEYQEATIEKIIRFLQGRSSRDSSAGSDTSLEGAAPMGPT
Procedure, shortened: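 HEK293 cells in nicotinamide-free DMEM with 5 μM nicotinamide, transiently transfected with mitochondrial-targeting-deleted ΔN-hSARM1; PC6 base-exchange fluorescent probe (50 μM) plus compound (30 μM) added ~8 h post-transfection. Fluorescence (ex 405/em 525 nm) read ~48 h from transfection; inhibition % versus transfected DMSO control, untransfected background subtracted.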

SMILES	Evaluation on NAMPT inhibitory [2]	inhibition at 30 µM (hSARM1) [%]	pIC50 [2]	minimal effective concentration [1] [µM]	Evaluation on protection against degeneration [1]
CCCCC(=O)Nc1ccc(CNC(=O)c2cccnc2)cn1 [Compound 159]	○	> 50		≤ 0.01	
CCCCCC(=O)Nc1ccc(CNC(=O)c2cccnc2)cn1 [Compound 160]		> 75	≤ 7.00	≤ 0.01	
CCC(C)C(=O)Nc1ccc(CNC(=O)c2cccnc2)cn1 (stereo not drawn) [Compound 161]	○	> 10		≤ 0.01	
CC(C)CC(=O)Nc1ccc(CNC(=O)c2cccnc2)cn1 [Compound 162]	○	> 25		≤ 0.01	
CCC(CC)C(=O)Nc1ccc(CNC(=O)c2cccnc2)cn1 [Compound 163]	○	> 25			A (A ≤ 0.01 µM)
CC(C)CCC(=O)Nc1ccc(CNC(=O)c2cccnc2)cn1 [Compound 164]		> 75	≤ 7.00	≤ 0.01	
CCC(C)CC(=O)Nc1ccc(CNC(=O)c2cccnc2)cn1 (stereo not drawn) [Compound 165]	○	> 75		≤ 0.01	
N#Cc1ccc(/C=C/C(=O)Nc2ccc(CNC(=O)c3cccnc3)cn2)cc1 [Compound 166]	○	> 75		≤ 0.01	
O=C(/C=C/c1ccc(C(F)(F)F)cc1)Nc1ccc(CNC(=O)c2cccnc2)cn1 [Compound 167]	○	> 75		≤ 0.01	
O=C(/C=C/c1ccc(OC(F)(F)F)cc1)Nc1ccc(CNC(=O)c2cccnc2)cn1 [Compound 168]	○	> 50		≤ 0.01	
O=C(CCc1ccc(C(F)(F)F)cc1)Nc1ccc(CNC(=O)c2cccnc2)cn1 [Compound 169]	○	> 75		≤ 0.01	
CCCCC(=O)N(C(=O)CCCC)c1ccc(CNC(=O)c2cccnc2)cn1 [Compound 171]	○	> 50		≤ 0.01	
CC(C)C(=O)N(C(=O)C(C)C)c1ccc(CNC(=O)c2cccnc2)cn1 [Compound 172]	○	> 10		≤ 0.01	
O=C(COc1cccc(C(F)(F)F)c1)Nc1ccc(CNC(=O)c2cccnc2)cn1 [Compound 175]		> 75	≤ 7.00	0.01 to 0.1	
COc1ccc(/C=C/C(=O)Nc2ccc(CNC(=O)c3cccnc3)cn2)cc1 [Compound 180]		> 75	≤ 7.00	≤ 0.01	
CC(C)(C)CC(=O)Nc1ccc(CNC(=O)c2cccnc2)cn1 [Compound 182]		> 75	≤ 7.00	≤ 0.01	
CC#CC(=O)Nc1ccc(CNC(=O)c2cccnc2)cn1 [Compound 183]		> 50	≤ 7.00	0.01 to 0.1	
O=C(NCCCOCCOCCCNC(=O)c1cnc2ccccc2c1)c1cccnc1 [Compound 185]	○	> 25		0.1 to 1	
O=C(NCCCOCCOCCCNC(=O)c1cccnc1)c1ccccc1 [Compound 186]	○	> 25		0.01 to 0.1	
O=C(NCCCOCCOCCCNC(=O)c1ccc2ccccc2c1)c1cccnc1 [Compound 187]	○	> 25			C (0.1 µM < C ≤ 1 µM)

Now from value to molecule, other results behind:

Evaluation on NAMPT inhibitory [2]	inhibition at 30 µM (hSARM1) [%]	pIC50 [2]	SMILES	minimal effective concentration [1] [µM]	Evaluation on protection against degeneration [1]
○	> 10		O=C(NCc1ccc(NC(=O)c2ccccc2)nc1)c1cnc2ccccc2c1 [Compound 140]	0.1 to 1	
	> 75	≤ 7.00	Cc1ccc(CC(=O)Nc2ccc(CNC(=O)c3cccnc3)cn2)cc1 [Compound 143]	≤ 0.01	
	> 75	≤ 7.00	O=C(Cc1ccc(F)cc1)Nc1ccc(CNC(=O)c2cccnc2)cn1 [Compound 144]	≤ 0.01	
○	> 50		O=C(NCc1ccc(CNC(=O)c2cccnc2)nc1)c1cccnc1 [Compound 146]	0.01 to 0.1	
○	> 25		O=C(NCc1cccc(CNC(=O)c2cccnc2)n1)c1ccccc1 [Compound 149]	0.1 to 1	
○	> 25		O=C(NCc1cccc(CNC(=O)c2cccnc2)n1)c1cccnc1 [Compound 150]	0.1 to 1	
○	> 25		O=C(NCc1cccc(CNC(=O)c2cccnc2)n1)c1ccncc1 [Compound 151]	0.1 to 1	
○	> 75		O=C(NCc1ccc(CNC(=O)c2ccccc2)nc1)c1cccnc1 [Compound 153]	0.01 to 0.1	
	> 75	≤ 7.00	N#Cc1ccc(CC(=O)Nc2ccc(CNC(=O)c3cccnc3)cn2)cc1 [Compound 154]	≤ 0.01	
○	> 25		CCCC(=O)Nc1ccc(CNC(=O)c2cccnc2)cn1 [Compound 158]	≤ 0.01	
○	> 75		N#Cc1ccc(CCC(=O)Nc2ccc(CNC(=O)c3cccnc3)cn2)cc1 [Compound 173]	0.01 to 0.1	
	> 75	≤ 7.00	N#Cc1ccc(OCC(=O)Nc2ccc(CNC(=O)c3cccnc3)cn2)cc1 [Compound 174]	0.01 to 0.1	
	> 75	≤ 7.00	O=C(COc1ccc(C(F)(F)F)cc1)Nc1ccc(CNC(=O)c2cccnc2)cn1 [Compound 176]	0.01 to 0.1	
	> 75	≤ 7.00	O=C(Cc1ccc(OCc2ccccc2)cc1)Nc1ccc(CNC(=O)c2cccnc2)cn1 [Compound 177]	0.01 to 0.1	
	> 75	≤ 7.00	O=C(COc1ccc(OCc2ccccc2)cc1)Nc1ccc(CNC(=O)c2cccnc2)cn1 [Compound 178]	0.01 to 0.1	
○	> 75		Cc1ccc(/C=C/C(=O)Nc2ccc(CNC(=O)c3cccnc3)cn2)cc1 [Compound 179]	≤ 0.01	
○	> 50		O=C(C#Cc1ccccc1)Nc1ccc(CNC(=O)c2cccnc2)cn1 [Compound 184]	0.01 to 0.1	

From EP4793271A1, “NEUROPROTECTIVE AGENT” (National Center of Neurology and Psychiatry, priority 2023, dated 2025)
